Laboratory results: patent US6602516B1, “Antibiotic/medicated gutta percha point” (priority 2000, dated 2003)

What was measured:
Prevotella intermedius = experiment: Naval Dental School antibacterial study of iodoform/gutta percha (FIG. 1); assay type: cell-based
Text: (§1) However, it is not as effective against an oral salivary leakage contamination as determined by the previous leakage and bacterial investigations.
(§2) FIG. 1 is a table illustrating the results from a study at Naval Dental School, Bethesda, Md., the iodoform/gutta percha disclosed in U.S. Pat. No. 5,648,403, issued Jul. 15, 1997.

Actinomyces = experiment: as above; assay type: cell-based
Text: as §1, §2

Escherchi coli = experiment: as above; assay type: cell-based; details: tested aerobe
Text: as §1, §2

Lactobacillus = experiment: as above; assay type: cell-based
Text: as §1, §2

Staphylococcus aureus = experiment: as above; assay type: cell-based; details: tested aerobe
Text: as §1, §2

Streptococcus sanguis = experiment: as above; assay type: cell-based; details: tested aerobe
Text: as §1, §2

Streptococcus mutans = experiment: as above; assay type: cell-based; details: tested aerobe
Text: as §1, §2

Enterococci faecium = experiment: as above; assay type: cell-based; details: facultative anaerobe
Text: as §1, §2

patients = details: more than 1,000 patients; cited from earlier work

Structure (SMILES)	effectiveness against Prevotella intermedius (Prevotella intermedius)	effectiveness against Actinomyces (Actinomyces)	effectiveness against Escherchi coli (Escherchi coli)	effectiveness against Lactobacillus (Lactobacillus)	effectiveness against Staphylococcus aureus (Staphylococcus aureus)	effectiveness against Streptococcus sanguis (Streptococcus sanguis)	effectiveness against Streptococcus mutans (Streptococcus mutans)	effectiveness against Enterococci faecium (Enterococci faecium)	allergic reactions (patients)
IC(I)I [Iodoform, Triiodomethane (Iodoform)]	ineffective	ineffective	ineffective	ineffective	ineffective	ineffective	ineffective	ineffective	–
CN(C)[C@@H]1C(O)=C(C(N)=O)C(=O)[C@@]2(O)C(O)=C3C(=O)c4c(O)cccc4[C@@](C)(O)[C@H]3C[C@@H]12 [tetracycline]	–	–	–	–	–	–	–	–	no allergic reactions
